From patent US20180200257A1, “METHODS FOR THE TREATMENT OF INFLAMMATORY DISORDERS” (Galapagos NV, priority 2015, published 2018)

System: subjects with moderately to severely active RA who have an inadequate response to methotrexate (MTX)
Assay: Study 2 (monotherapy) - Aspartate Aminotransferase (AST) levels
Assay type: in vivo, human
Source text: Randomized, double-blind, placebo-controlled, multicenter, phase IIb dose finding study of Compound 1 (dosed as a [Compound 1:HCl:3H2O]) administered for 24 weeks as monotherapy to subjects with moderately to severely active rheumatoid arthritis who have an inadequate response to methotrexate alone
Double-blind, placebo-controlled, monotherapy study in subjects with moderately to severely active RA who have an inadequate response to methotrexate (MTX) (oral or parenteral).
280 subjects randomized to one of 3 doses of Compound 1 (dosed as a [Compound 1:HCl:3H2O]) or to placebo, given once daily (q.d.).
Twelve weeks of treatment with Compound 1 (dosed as a [Compound 1:HCl:3H2O]) at 50 mg, 100 mg, or 200 mg q.d.; or placebo. At Week 12, all subjects on placebo and the subjects on the 50 mg dose who have not achieved 20% improvement in swollen joint count (SJC66) and tender joint count (TJC68) will be assigned to 100 mg q.d. in a blinded fashion and will continue treatment until Week 24. Subjects in the other groups will maintain their randomized treatment until Week 24.
AST levels determination is available at Quest Diagnostics, Clinical Trials, Quest House, 125-135 Staines Road, Hounslow, Middlesex, TW3 3JB, United Kingdom under Catalogue n#84450. For Study 3, the data are obtained at BARC Europe, 3B,Industrie Park, Zwijnaarde, B-9052 Ghent, Belgium.
AST catalyzes the transamination of aspartate and 2-oxoglutarate, forming L-glutamate and oxalacetate. The oxalacetate is reduced to L-malate by malate dehydrogenase, whilst NADH is converted to NAD+, measured spectrophotometrically. Guidelines for the AST value have been issued by the association for Clinical Biochemistry and Laboratory Medicine, 130-132 Tooley Street LONDON SE1 2TU, united Kingdom, wherein the AST value should be below 34 U/l in Female and below 45 U/L in male. As disclosed in the respective study protocols for Study 1 or 2, at week 12, depending on the outcome of their treatment, the subjects may be continued in their initial treatment course, or reassigned to another treatment group in a randomized blinded fashion until week 24. Therefore, the number of subjects (N) for the period of either 12 weeks, or 24 weeks is provided to reflect this redistribution at week 12.
Subjects in the other groups maintained their randomized treatment until Week 24.

[1] = 12 weeks results, 50 mg q.d., week 1
[2] = 12 weeks results, 50 mg q.d., week 2
[3] = 12 weeks results, 50 mg q.d., week 4
[4] = 12 weeks results, 50 mg q.d., week 8
[5] = 12 weeks results, 50 mg q.d., week 12
[6] = 12 weeks results, 100 mg q.d., week 1
[7] = 12 weeks results, 100 mg q.d., week 2
[8] = 12 weeks results, 100 mg q.d., week 4
[9] = 12 weeks results, 100 mg q.d., week 8
[10] = 12 weeks results, 100 mg q.d., week 12
[11] = 12 weeks results, 200 mg q.d., week 1
[12] = 12 weeks results, 200 mg q.d., week 2
[13] = 12 weeks results, 200 mg q.d., week 4
[14] = 12 weeks results, 200 mg q.d., week 8
[15] = 12 weeks results, 200 mg q.d., week 12
[16] = 24 weeks results, 50 mg q.d. non responders switching to 100 mg q.d. at week 12, week 1
[17] = 24 weeks results, 50 mg q.d. non responders switching to 100 mg q.d. at week 12, week 2
[18] = 24 weeks results, 50 mg q.d. non responders switching to 100 mg q.d. at week 12, week 4
[19] = 24 weeks results, 50 mg q.d. non responders switching to 100 mg q.d. at week 12, week 8
[20] = 24 weeks results, 50 mg q.d. non responders switching to 100 mg q.d. at week 12, week 12
[21] = 24 weeks results, 50 mg q.d. non responders switching to 100 mg q.d. at week 12, week 16
[22] = 24 weeks results, 50 mg q.d. non responders switching to 100 mg q.d. at week 12, week 20
[23] = 24 weeks results, 50 mg q.d. non responders switching to 100 mg q.d. at week 12, week 24
[24] = 24 weeks results, 50 mg q.d. responders, week 1
[25] = 24 weeks results, 50 mg q.d. responders, week 2
[26] = 24 weeks results, 50 mg q.d. responders, week 4
[27] = 24 weeks results, 50 mg q.d. responders, week 8
[28] = 24 weeks results, 50 mg q.d. responders, week 12
[29] = 24 weeks results, 50 mg q.d. responders, week 16
[30] = 24 weeks results, 50 mg q.d. responders, week 20
[31] = 24 weeks results, 50 mg q.d. responders, week 24
[32] = 24 weeks results, 100 mg q.d., week 1
[33] = 24 weeks results, 100 mg q.d., week 2
[34] = 24 weeks results, 100 mg q.d., week 4
[35] = 24 weeks results, 100 mg q.d., week 8
[36] = 24 weeks results, 100 mg q.d., week 12
[37] = 24 weeks results, 100 mg q.d., week 16
[38] = 24 weeks results, 100 mg q.d., week 20
[39] = 24 weeks results, 100 mg q.d., week 24
[40] = 24 weeks results, 200 mg q.d., week 1
[41] = 24 weeks results, 200 mg q.d., week 2
[42] = 24 weeks results, 200 mg q.d., week 4
[43] = 24 weeks results, 200 mg q.d., week 8
[44] = 24 weeks results, 200 mg q.d., week 12
[45] = 24 weeks results, 200 mg q.d., week 16
[46] = 24 weeks results, 200 mg q.d., week 20
[47] = 24 weeks results, 200 mg q.d., week 24
[48] = 24 weeks results, placebo switching to 100 mg q.d. at week 12, week 16
[49] = 24 weeks results, placebo switching to 100 mg q.d. at week 12, week 20
[50] = 24 weeks results, placebo switching to 100 mg q.d. at week 12, week 24

## O=C(Nc1nc2cccc(-c3ccc(CN4CCS(=O)(=O)CC4)cc3)n2n1)C1CC1 [Compound 1, cyclopropanecarboxylic acid {5-[4-(1,1-dioxo-thiomorpholin-4-ylmethyl)-phenyl]-[1,2,4]triazolo[1,5-a]pyridin-2-yl}-amide]
[1]
  Study 2 - AST Mean CFB: −1.8 IU/L
  Study 2 - AST Mean percentage CFB: 0.54%
[2]
  Study 2 - AST Mean CFB: −2.0 IU/L
  Study 2 - AST Mean percentage CFB: 1.54%
[3]
  Study 2 - AST Mean CFB: −1.7 IU/L
  Study 2 - AST Mean percentage CFB: −0.21%
[4]
  Study 2 - AST Mean CFB: −2.5 IU/L
  Study 2 - AST Mean percentage CFB: −0.42%
[5]
  Study 2 - AST Mean CFB: −0.2 IU/L
  Study 2 - AST Mean percentage CFB: 2.69%
[6]
  Study 2 - AST Mean CFB: 0.4 IU/L
  Study 2 - AST Mean percentage CFB: 8.99%
[7]
  Study 2 - AST Mean CFB: 1.3 IU/L
  Study 2 - AST Mean percentage CFB: 9.02%
[8]
  Study 2 - AST Mean CFB: 1.3 IU/L
  Study 2 - AST Mean percentage CFB: 15.05%
[9]
  Study 2 - AST Mean CFB: 1.9 IU/L
  Study 2 - AST Mean percentage CFB: 18.05%
[10]
  Study 2 - AST Mean CFB: 1.9 IU/L
  Study 2 - AST Mean percentage CFB: 16.02%
[11]
  Study 2 - AST Mean CFB: 0.1 IU/L
  Study 2 - AST Mean percentage CFB: 7.59%
[12]
  Study 2 - AST Mean CFB: 0.9 IU/L
  Study 2 - AST Mean percentage CFB: 11.22%
[13]
  Study 2 - AST Mean CFB: 0.8 IU/L
  Study 2 - AST Mean percentage CFB: 13.13%
[14]
  Study 2 - AST Mean CFB: 1.4 IU/L
  Study 2 - AST Mean percentage CFB: 16.67%
[15]
  Study 2 - AST Mean CFB: 1.1 IU/L
  Study 2 - AST Mean percentage CFB: 15.21%
[16]
  Study 2 - AST Mean CFB: −0.4 IU/L
  Study 2 - AST Mean percentage CFB: −1.15%
[17]
  Study 2 - AST Mean CFB: 0.3 IU/L
  Study 2 - AST Mean percentage CFB: 2.57%
[18]
  Study 2 - AST Mean CFB: 0.3 IU/L
  Study 2 - AST Mean percentage CFB: 2.84%
[19]
  Study 2 - AST Mean CFB: 0.0 IU/L
  Study 2 - AST Mean percentage CFB: 1.89%
[20]
  Study 2 - AST Mean CFB: 0.8 IU/L
  Study 2 - AST Mean percentage CFB: 7.36%
[21]
  Study 2 - AST Mean CFB: 0.8 IU/L
  Study 2 - AST Mean percentage CFB: 5.82%
[22]
  Study 2 - AST Mean CFB: 1.8 IU/L
  Study 2 - AST Mean percentage CFB: 13.66%
[23]
  Study 2 - AST Mean CFB: 2.6 IU/L
  Study 2 - AST Mean percentage CFB: 17.42%
[24]
  Study 2 - AST Mean CFB: −2.1 IU/L
  Study 2 - AST Mean percentage CFB: 0.98%
[25]
  Study 2 - AST Mean CFB: −2.6 IU/L
  Study 2 - AST Mean percentage CFB: 1.26%
[26]
  Study 2 - AST Mean CFB: −2.3 IU/L
  Study 2 - AST Mean percentage CFB: −1.03%
[27]
  Study 2 - AST Mean CFB: −3.2 IU/L
  Study 2 - AST Mean percentage CFB: −1.06%
[28]
  Study 2 - AST Mean CFB: −0.5 IU/L
  Study 2 - AST Mean percentage CFB: 1.37%
[29]
  Study 2 - AST Mean CFB: 0.5 IU/L
  Study 2 - AST Mean percentage CFB: 8.81%
[30]
  Study 2 - AST Mean CFB: 0.5 IU/L
  Study 2 - AST Mean percentage CFB: 7.58%
[31]
  Study 2 - AST Mean CFB: −0.5 IU/L
  Study 2 - AST Mean percentage CFB: 5.14%
[32]
  Study 2 - AST Mean CFB: 0.4 IU/L
  Study 2 - AST Mean percentage CFB: 8.99%
[33]
  Study 2 - AST Mean CFB: 1.3 IU/L
  Study 2 - AST Mean percentage CFB: 9.02%
[34]
  Study 2 - AST Mean CFB: 1.3 IU/L
  Study 2 - AST Mean percentage CFB: 15.05%
[35]
  Study 2 - AST Mean CFB: 1.9 IU/L
  Study 2 - AST Mean percentage CFB: 18.05%
[36]
  Study 2 - AST Mean CFB: 1.9 IU/L
  Study 2 - AST Mean percentage CFB: 16.02%
[37]
  Study 2 - AST Mean CFB: 5.4 IU/L
  Study 2 - AST Mean percentage CFB: 23.15%
[38]
  Study 2 - AST Mean CFB: 2.4 IU/L
  Study 2 - AST Mean percentage CFB: 23.16%
[39]
  Study 2 - AST Mean CFB: 1.5 IU/L
  Study 2 - AST Mean percentage CFB: 15.75%
[40]
  Study 2 - AST Mean CFB: 0.1 IU/L
  Study 2 - AST Mean percentage CFB: 7.59%
[41]
  Study 2 - AST Mean CFB: 0.9 IU/L
  Study 2 - AST Mean percentage CFB: 11.22%
[42]
  Study 2 - AST Mean CFB: 0.8 IU/L
  Study 2 - AST Mean percentage CFB: 13.13%
[43]
  Study 2 - AST Mean CFB: 1.4 IU/L
  Study 2 - AST Mean percentage CFB: 16.67%
[44]
  Study 2 - AST Mean CFB: 1.1 IU/L
  Study 2 - AST Mean percentage CFB: 15.21%
[45]
  Study 2 - AST Mean CFB: 2.2 IU/L
  Study 2 - AST Mean percentage CFB: 21.14%
[46]
  Study 2 - AST Mean CFB: 1.7 IU/L
  Study 2 - AST Mean percentage CFB: 17.43%
[47]
  Study 2 - AST Mean CFB: 1.4 IU/L
  Study 2 - AST Mean percentage CFB: 17.74%
[48]
  Study 2 - AST Mean CFB: 0.9 IU/L
  Study 2 - AST Mean percentage CFB: 8.60%
[49]
  Study 2 - AST Mean CFB: 2.2 IU/L
  Study 2 - AST Mean percentage CFB: 16.10%
[50]
  Study 2 - AST Mean CFB: 2.1 IU/L
  Study 2 - AST Mean percentage CFB: 13.64%
